Legend:
Assay type in all cases: in vivo
[1] = test system: barnyardgrass (Echinochloa crus-galli); test: Test A preemergence soil spray, visual injury rating 0-100; conditions: 10 days
Method in brief: (§1)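 Loam-sand pots got test material in surfactant-containing solvent, either as a directed soil spray before emergence or on plants at the one- to two-leaf stage. Visual injury (0-100) was read after ten greenhouse days.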

[2] = test system: blackgrass (Alopecurus myosuroides); test: as above; conditions: 10 days
Method in brief: as §1

corn (Zea mays) [3] = test: as above; conditions: 10 days
Method in brief: as §1

[4] = test system: green foxtail (Setaria viridis); test: as above; conditions: 10 days
Method in brief: as §1

kochia (Bassia scoparia) [5] = test: as above; conditions: 10 days
Method in brief: as §1

[6] = test system: oat, wild (wild oat, Avena fatua); test: as above; conditions: 10 days
Method in brief: as §1

[7] = test system: palmer (palmer amaranth, palmer pigweed, Amaranthus palmeri); test: as above; conditions: 10 days
Method in brief: as §1

[8] = test system: ragweed (common ragweed, Ambrosia artemisiifolia); test: as above; conditions: 10 days
Method in brief: as §1

[9] = test system: ryegrass, Italian (italian ryegrass, Lolium multiflorum); test: as above; conditions: 10 days
Method in brief: as §1

soybean (Glycine max) [10] = test: as above; conditions: 10 days
Method in brief: as §1

[11] = test system: wheat (Triticum aestivum); test: as above; conditions: 10 days
Method in brief: as §1

[12] = test system: barnyardgrass (Echinochloa crus-galli); test: Test A postemergence application, visual injury rating 0-100
Method in brief: as §1

[13] = test system: blackgrass (Alopecurus myosuroides); test: as above
Method in brief: as §1

corn (Zea mays) [14] = test: as above
Method in brief: as §1

[15] = test system: galium (catchweed bedstraw, Galium aparine); test: as above
Method in brief: as §1

[16] = test system: green foxtail (Setaria viridis); test: as above
Method in brief: as §1

[17] = test system: horseweed (Erigeron canadensis); test: as above
Method in brief: as §1

kochia (Bassia scoparia) [18] = test: as above
Method in brief: as §1

[19] = test system: oat, wild (wild oat, Avena fatua); test: as above
Method in brief: as §1

[20] = test system: palmer (palmer amaranth, palmer pigweed, Amaranthus palmeri); test: as above
Method in brief: as §1

[21] = test system: ragweed (common ragweed, Ambrosia artemisiifolia); test: as above
Method in brief: as §1

[22] = test system: ryegrass, Italian (italian ryegrass, Lolium multiflorum); test: as above
Method in brief: as §1

soybean (Glycine max) [23] = test: as above
Method in brief: as §1

[24] = test system: wheat (Triticum aestivum); test: as above
Method in brief: as §1

[25] = test system: barnyardgrass (Echinochloa crusgalli); test: Test B flooded paddy test, visual plant response rating 0-100; conditions: 250 g ai/ha, Flood, applied to paddy water, evaluated after 13 days
Method in brief: (§2)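 Visual evaluation after 13 days. Water-applied treatment, 3 cm flood depth held constant, plants at 2-leaf stage at treatment.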

[26] = test system: ducksalad (Heteranthera limosa); test: as above; conditions: 250 g ai/ha, Flood, applied to paddy water, evaluated after 13 days
Method in brief: as §2

rice (Oryza sativa) = test: as above; conditions: 250 g ai/ha, Flood, applied to paddy water, evaluated after 13 days
Method in brief: as §2

[27] = test system: sedge, umbrella (small-flower umbrella sedge, Cyperus difformis); test: as above; conditions: 250 g ai/ha, Flood, applied to paddy water, evaluated after 13 days
Method in brief: as §2

[28] = 62 g ai/ha, 0 = no effect, 100 = complete control
[29] = 62 g ai/ha, postemergence, 10 days, 0 = no effect, 100 = complete control
[30] = Postemergence, 16 g ai/ha, greenhouse 10 days, 0 no effect, 100 complete control

CC1(C(=O)NC2CC=C(C(=O)OCC(F)(F)F)C2)CN(c2cc(Cl)cc(Cl)c2)C(=O)O1 (stereo not shown) [Compound 96]
Barnyardgrass plant response rating ([1]; 16 g ai/ha, 0 to 100 scale): 10
Barnyardgrass plant response rating (0-100) [1, 28]: 60
Blackgrass plant response rating ([2]; 16 g ai/ha, 0 to 100 scale): 0
Blackgrass plant response rating (0-100) [2, 28]: 0
Corn plant response rating (corn (Zea mays) [3]; 16 g ai/ha, 0 to 100 scale): 0
Corn plant response rating (0-100) (corn (Zea mays) [3]; [28]): 40
Foxtail, Green plant response rating ([4]; 16 g ai/ha, 0 to 100 scale): 10
Foxtail, Green plant response rating (0-100) [4, 28]: 90
Kochia plant response rating (kochia (Bassia scoparia) [5]; 16 g ai/ha, 0 to 100 scale): 0
Kochia plant response rating (0-100) (kochia (Bassia scoparia) [5]; [28]): 0
Oat, Wild plant response rating ([6]; 16 g ai/ha, 0 to 100 scale): 0
Oat, Wild plant response rating (0-100) [6, 28]: 20
Pigweed, Palmer plant response rating ([7]; 16 g ai/ha, 0 to 100 scale): 100
Pigweed, Palmer plant response rating (0-100) [7, 28]: 90
Ragweed plant response rating ([8]; 16 g ai/ha, 0 to 100 scale): 0
Ragweed plant response rating (0-100) [8, 28]: 0
Ryegrass, Italian plant response rating ([9]; 16 g ai/ha, 0 to 100 scale): 20
Ryegrass, Italian plant response rating (0-100) [9, 28]: 60
Soybean plant response rating (soybean (Glycine max) [10]; 16 g ai/ha, 0 to 100 scale): 10
Soybean plant response rating (0-100) (soybean (Glycine max) [10]; [28]): 30
Wheat plant response rating ([11]; 16 g ai/ha, 0 to 100 scale): 0
Wheat plant response rating (0-100) [11, 28]: 0
Barnyardgrass plant response rating (0-100) [12, 29]: 100
Barnyardgrass plant response rating (0 to 100 scale) [12, 30]: 100
Blackgrass plant response rating (0-100) [13, 29]: 90
Blackgrass plant response rating (0 to 100 scale) [13, 30]: 80
Corn plant response rating (0-100) (corn (Zea mays) [14]; [29]): 100
Corn plant response rating (0 to 100 scale) (corn (Zea mays) [14]; [30]): 100
Galium plant response rating (0-100) [15, 29]: 90
Galium plant response rating (0 to 100 scale) [15, 30]: 70
Foxtail, Green plant response rating (0-100) [16, 29]: 90
Foxtail, Green plant response rating (0 to 100 scale) [16, 30]: 90
Horseweed plant response rating (0-100) [17, 29]: 70
Horseweed plant response rating (0 to 100 scale) [17, 30]: 40
Kochia plant response rating (0-100) (kochia (Bassia scoparia) [18]; [29]): 80
Kochia plant response rating (0 to 100 scale) (kochia (Bassia scoparia) [18]; [30]): 70
Oat, Wild plant response rating (0-100) [19, 29]: 80
Oat, Wild plant response rating (0 to 100 scale) [19, 30]: 50
Pigweed, Palmer plant response rating (0-100) [20, 29]: 90
Pigweed, Palmer plant response rating (0 to 100 scale) [20, 30]: 70
Ragweed plant response rating (0-100) [21, 29]: 60
Ragweed plant response rating (0 to 100 scale) [21, 30]: 40
Ryegrass, Italian plant response rating (0-100) [22, 29]: 90
Ryegrass, Italian plant response rating (0 to 100 scale) [22, 30]: 80
Soybean plant response rating (0-100) (soybean (Glycine max) [23]; [29]): 80
Soybean plant response rating (0 to 100 scale) (soybean (Glycine max) [23]; [30]): 80
Wheat plant response rating (0-100) [24, 29]: 90
Wheat plant response rating (0 to 100 scale) [24, 30]: 30
Plant response rating, Barnyardgrass (0 to 100 scale, 0 is no effect and 100 is complete control) [25]: 95
Plant response rating, Ducksalad (0 to 100 scale, 0 is no effect and 100 is complete control) [26]: 70
Plant response rating, Rice (0 to 100 scale, 0 is no effect and 100 is complete control) (rice (Oryza sativa)): 25
Plant response rating, Sedge, Umbrella (0 to 100 scale, 0 is no effect and 100 is complete control) [27]: 95

Reference: patent US20260285850A1, “SUBSTITUTED OXAZOLIDINONES AND IMIDAZOLINONES AS HERBICIDES” (FMC CORPORATION, priority 2023, published 2026)
